Data from US20140349340A1, “MBTH-LIKE PROTEINS IN THE PRODUCTION OF SEMI SYNTHETIC ANTIBIOTICS” (DSM SINOCHEM PHARMACEUTICALS NETHERLANDS B.V., priority 2012, published 2014).

Experiments:
Type in all cases: biochemical
[1] = PPi release assay, adenylation activity with L-hydroxyphenylglycine; details: for adenylation activity (PPi release assay) / adenylation activity (absorption 360 nm, PPi release assay): substrate L-hydroxyphenylglycine
From the text: (§1) These assays use inorganic pyrophosphatases to convert PPi produced during aminoacyl-AMP formation to orthophosphate (Pi). To measure Pi concentrations some of these assays use molybdate/malachite green reagent for colorimetric detection (McQuade et al. 2008) or, as used in the context of the present invention, a shift in absorbance maximum by conversion of 7-methyl-6-thioguanosine (MESG) by purine nucleoside phosphorylase (Ehmann D. E. et al. (Proc. Natl. Acad. Sci. (2000) 97, 2509-2514) or Daniel & Aldrich (Anal. Biochem. (2010) 404, 56-63)).
(§2) To determine the adenylation activity of the adenylation domains, the Enzchek® pyrophosphate assay kit (Life Technologies) was used as described by Ehmann D. E. et al. (Proc Nat Acad Science (2000) 97, 2509-2514) with small modifications. The reactions were performed 96 wells UV/Vis transparent plates (BD Falcon). The reaction mixture comprises 50 mM HEPES pH 8.0, 10 mM MgCl2, 5 mM ATP, 75 mM DTT, 0.03 U Inorganic Pyrophosphatase (IP), 1 U Purine Nucleoside Phosphorylase (PNP) and 0.2 mM MESG in a volume of 70 μl. Next 20 μl (around 0.5-2 μM final concentration) of purified A(T) domain, with or without co-purification of the MbtH like helper protein was added and the reaction was pre-incubated for 15 minutes at RT to reduce contaminating Pi. Following the pre-incubation, 10 μl of a 10 mM or 1 mM solution of the appropriate amino acid depending on the performed specificity determination was added to initiate the adenylation reaction and the absorbance at 360 nm was measured using a TECAN I Control spectrophotometer. Absorbance measurements were made every 5 to 10 min over a period of up to 240 min. A reaction with addition of 10 μl MilliQ water instead was used to determine and subtract the background absorbance. As substrates the following amino acids were used: D- or L-phenylalanine, D- or L-hydroxyphenylglycine, D- or L-phenylglycine, L-tryptophan, L-valine, L-cysteine, and L-leucine.

[2] = PPi release assay, adenylation activity with D-hydroxyphenylglycine; details: for adenylation activity (PPi release assay) / adenylation activity (absorption 360 nm, PPi release assay): substrate D-hydroxyphenylglycine
From the text: as §1, §2

[3] = PPi release assay, adenylation activity with L-phenylglycine; details: for adenylation activity (PPi release assay): substrate L-phenylglycine, co-purified with Tcp13, or Tcp17 or VMbtH; for Formed PPi: substrate L-PG 1 mM
From the text: as §1, §2

[4] = PPi release assay, adenylation activity with D-phenylglycine; details: for adenylation activity (PPi release assay): substrate D-phenylglycine, co-purified with Tcp13, or Tcp17 or VMbtH; for Formed PPi: substrate D-PG 1 mM
From the text: as §1, §2

[5] = PPi release assay, adenylation activity with L-phenylalanine; details: substrate L-phenylalanine; for adenylation activity (PPi release assay): co-purified with Tcp13, or Tcp17 or VMbtH
From the text: as §1, §2

[6] = PPi release assay, adenylation activity with D-phenylalanine; details: substrate D-phenylalanine; for adenylation activity (PPi release assay): co-purified with Tcp13, or Tcp17 or VMbtH
From the text: as §1, §2

[7] = co-purified with MbtH-like protein CMbtH
[8] = co-purified with Tcp13, or Tcp17 or VMbtH
[9] = protein alone, without MbtH-like protein
[10] = co-purified with MbtH-like protein VMbtH
[11] = co-purified with MbtH-like protein Tcp13
[12] = co-purified with MbtH-like protein Tcp 13
[13] = co-purified with MbtH-like protein Tcp 17

## ComB_M1_A: purified adenylation domain of ComB module M1 (SEQ ID NO: 9); Streptomyces lavendulae
[1]; [7]
  adenylation activity (PPi release assay): confirmed its activity
[1]; [8]
  adenylation activity (PPi release assay): no adenylation activity
[1]; [9]
  adenylation activity (absorption 360 nm, PPi release assay): No adenylation activity
[2]; [7]
  adenylation activity (PPi release assay): confirmed its activity
[2]; [8]
  adenylation activity (PPi release assay): no adenylation activity
[2]; [9]
  adenylation activity (absorption 360 nm, PPi release assay): No adenylation activity
[3]
  adenylation activity (PPi release assay): no adenylation activity
[4]
  adenylation activity (PPi release assay): no adenylation activity
[5]
  adenylation activity (PPi release assay): no adenylation activity
[5]; [9]
  adenylation activity (absorption 360 nm, PPi release assay): No adenylation activity
[6]
  adenylation activity (PPi release assay): no adenylation activity
[6]; [9]
  adenylation activity (absorption 360 nm, PPi release assay): No adenylation activity

## Dbv25_M1_A: purified adenylation domain of Dbv25 module M1 (SEQ ID NO: 2); Nonomuraea sp. ATCC 39727
[1]; [10]
  adenylation activity (absorption 360 nm, PPi release assay): clear adenylation activity
[1]; [9]
  adenylation activity (absorption 360 nm, PPi release assay): No adenylation activity
[2]; [10]
  adenylation activity (absorption 360 nm, PPi release assay): clear adenylation activity
[2]; [9]
  adenylation activity (absorption 360 nm, PPi release assay): No adenylation activity
[5]; [10]
  adenylation activity (absorption 360 nm, PPi release assay): no activity
[5]; [9]
  adenylation activity (absorption 360 nm, PPi release assay): No adenylation activity
[6]; [10]
  adenylation activity (absorption 360 nm, PPi release assay): no activity
[6]; [9]
  adenylation activity (absorption 360 nm, PPi release assay): No adenylation activity

## Tcp9_M1_AT: purified adenylation thiolation didomain of Tcp9 (SEQ ID NO: 1 plus adjacent thiolation domain), MBP fusion, His-tag
[1]; substrate L-HPG 0.1 mM, co-purified with MbtH-like protein Tcp 13
  Formed PPi: 1.18 mM/min/mM enzyme
[1]; substrate L-HPG 0.1 mM, co-purified with MbtH-like protein Tcp 17
  Formed PPi: 1.20 mM/min/mM enzyme
[1]; substrate L-HPG 0.1 mM, co-purified with MbtH-like protein VMbtH
  Formed PPi: 1.23 mM/min/mM enzyme
[1]; substrate L-HPG 1 mM, co-purified with MbtH-like protein Tcp 13
  Formed PPi: 1.16 mM/min/mM enzyme
[1]; substrate L-HPG 1 mM, co-purified with MbtH-like protein Tcp 17
  Formed PPi: 1.34 mM/min/mM enzyme
[1]; substrate L-HPG 1 mM, co-purified with MbtH-like protein VMbtH
  Formed PPi: 1.40 mM/min/mM enzyme
[1]; [11]
  adenylation activity (absorption 360 nm, PPi release assay): clear adenylation activity
[1]; [9]
  adenylation activity (absorption 360 nm, PPi release assay): No adenylation activity
[2]; substrate D-HPG 0.1 mM, co-purified with MbtH-like protein Tcp 13
  Formed PPi: 2.07 mM/min/mM enzyme
[2]; substrate D-HPG 0.1 mM, co-purified with MbtH-like protein Tcp 17
  Formed PPi: 1.71 mM/min/mM enzyme
[2]; substrate D-HPG 0.1 mM, co-purified with MbtH-like protein VMbtH
  Formed PPi: 3.72 mM/min/mM enzyme
[2]; substrate D-HPG 1 mM, co-purified with MbtH-like protein Tcp 13
  Formed PPi: 5.28 mM/min/mM enzyme
[2]; substrate D-HPG 1 mM, co-purified with MbtH-like protein Tcp 17
  Formed PPi: 4.63 mM/min/mM enzyme
[2]; substrate D-HPG 1 mM, co-purified with MbtH-like protein VMbtH
  Formed PPi: 8.44 mM/min/mM enzyme
[2]; [11]
  adenylation activity (absorption 360 nm, PPi release assay): clear adenylation activity
[2]; [9]
  adenylation activity (absorption 360 nm, PPi release assay): No adenylation activity
[3]; [12]
  Formed PPi: 1.32 mM/min/mM enzyme
[3]; [13]
  Formed PPi: 1.44 mM/min/mM enzyme
[3]; [10]
  Formed PPi: 2.32 mM/min/mM enzyme
[4]; [12]
  Formed PPi: 0.05 mM/min/mM enzyme
[4]; [13]
  Formed PPi: 0.05 mM/min/mM enzyme
[4]; [10]
  Formed PPi: 0.07 mM/min/mM enzyme
[5]; [11]
  adenylation activity (absorption 360 nm, PPi release assay): no activity
[5]; [9]
  adenylation activity (absorption 360 nm, PPi release assay): No adenylation activity
[6]; [11]
  adenylation activity (absorption 360 nm, PPi release assay): no activity
[6]; [9]
  adenylation activity (absorption 360 nm, PPi release assay): No adenylation activity

## Teg7_M1_A: purified adenylation domain of Teg7 module M1 (SEQ ID NO: 27); uncultured soil bacterium
[1]; co-purified with MbtH-like protein TMbtH
  adenylation activity (PPi release assay): the same specificity
[1]; [8]
  adenylation activity (PPi release assay): no adenylation activity
[1]; [9]
  adenylation activity (absorption 360 nm, PPi release assay): No adenylation activity
[2]; [8]
  adenylation activity (PPi release assay): no adenylation activity
[2]; [9]
  adenylation activity (absorption 360 nm, PPi release assay): No adenylation activity
[3]
  adenylation activity (PPi release assay): no adenylation activity
[4]
  adenylation activity (PPi release assay): no adenylation activity
[5]
  adenylation activity (PPi release assay): no adenylation activity
[5]; [9]
  adenylation activity (absorption 360 nm, PPi release assay): No adenylation activity
[6]
  adenylation activity (PPi release assay): no adenylation activity
[6]; [9]
  adenylation activity (absorption 360 nm, PPi release assay): No adenylation activity

## StaA_M1_A: purified adenylation domain of StaA module M1 (SEQ ID NO: 3); Streptomyces toyocaensis
[1]; [10]
  adenylation activity (absorption 360 nm, PPi release assay): clear adenylation activity
[1]; [9]
  adenylation activity (absorption 360 nm, PPi release assay): No adenylation activity
[2]; [10]
  adenylation activity (absorption 360 nm, PPi release assay): clear adenylation activity
[2]; [9]
  adenylation activity (absorption 360 nm, PPi release assay): No adenylation activity
[5]; [10]
  adenylation activity (absorption 360 nm, PPi release assay): no activity
[5]; [9]
  adenylation activity (absorption 360 nm, PPi release assay): No adenylation activity
[6]; [10]
  adenylation activity (absorption 360 nm, PPi release assay): no activity
[6]; [9]
  adenylation activity (absorption 360 nm, PPi release assay): No adenylation activity
